This assay relates to OVCAR-3 cells. Nature of the assay: imaging-based nuclear count analysis (NCA) in OVCAR-3 cells. It is filed as cell-based. As to conditions: Homo sapiens, 96 h, 4 days, nuclear count with Hoechst 33342, 0.1% DMSO, low control 10 μM AM-5308. Here is the method: Test name: imaging-based nuclear count analysis (NCA) in OVCAR-3 cells
• a) The final test concentrations of AM-5308:10000, 3333.3, 1111.1, 370.3, 123.4, 41.1, 13.7, 4.5, 1.5, 0.5 nM. • b) The final test concentrations of the test compound: 10000, 3333.3, 1111.1, 370.3, 123.4, 41.1, 13.7, 4.5, 1.5, 0.5 nM. • c) The cells were cultured in a 37° C., 5% CO2 incubator for 4 days. • d) DMSO concentration was 0.1%. Day 1 Seeding the Cells into a 384-Well Cell Culture Plate • a) When the cell confluence reached 80%-90%, the cells were treated. • b) The cells were resuspended in a medium and then counted and diluted at a desired density. • c) A cell suspension containing appropriate cells was added to the 384-well plate at 30 μL/well: 600 cells/well. […]
High-reading control wells: cells+30 nL DMSO; low-reading control wells: 10 μM AM-5308.
IC50 (nM) was calculated using GraphPad Prism 8 software and the effect-dose curves of the compound were plotted.

One may read the IC50 as the concentration at which inhibition is half-maximal. Higher therefore signals weaker potency. `O=C(Nc1cccc2c1nc1n2C2CCC1CC2)c1ccc(NS(=O)(=O)CCO)cc1N1CCC2(CC1)CC2` [Compound 100, 4-(2-hydroxyethanesulfonylamino)-2-(6-azaspiro[2.5]octan-6-yl)-N-(1,2,3,4-tetrahydro-1,4-ethylbenzo[4,5]imidazo[1,2-a]pyridin-6-yl)benzamide] showed an IC50 of 110 nM.

For the origin of these results see patent US20260294927A1, “KIF18A INHIBITOR COMPOUND, AND PHARMACEUTICAL COMPOSITION AND PREPARATION METHOD THEREFOR AND USE THEREOF” (CHANGCHUN GENESCIENCE PHARMACEUTICAL CO., LTD., priority 2022, published 2026).
